Assay results published in PubChem BioAssay (NCI).
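In this assay, cells in 96-well plates receive the compound at five concentrations for 48 hours. Endpoints are linearly interpolated between the surrounding concentrations. At the TGI there is no net growth.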

Tests used:
Experiment in all cases: inhibition of tumour cell growth, NCI panel, 48 h
M14 melanoma = test system: M14 melanoma
NCI-H522 lung = test system: NCI-H522 lung
K-562 leukemia = test system: K-562 leukemia
TK-10 renal = test system: TK-10 renal
RXF 393 renal = test system: RXF 393 renal
MOLT-4 leukemia = test system: MOLT-4 leukemia
COLO 205 colon = test system: COLO 205 colon
HL-60(TB) leukemia = test system: HL-60(TB) leukemia
MCF7 breast = test system: MCF7 breast
LOX IMVI melanoma = test system: LOX IMVI melanoma
NCI-H226 lung = test system: NCI-H226 lung
T-47D breast = test system: T-47D breast
UACC-62 melanoma = test system: UACC-62 melanoma
HOP-92 NSCLC = test system: HOP-92 NSCLC
SN12C renal = test system: SN12C renal
HCC-2998 colon = test system: HCC-2998 colon
NCI-H23 lung = test system: NCI-H23 lung
IGROV1 ovarian = test system: IGROV1 ovarian
HT29 colon = test system: HT29 colon
SK-MEL-28 melanoma = test system: SK-MEL-28 melanoma
SR leukemia = test system: SR leukemia
NCI/ADR-RES ovarian = test system: NCI/ADR-RES ovarian
EKVX NSCLC = test system: EKVX NSCLC
A549 NSCLC = test system: A549 NSCLC
CCRF-CEM leukemia = test system: CCRF-CEM leukemia
KM12 colon = test system: KM12 colon
SNB-19 CNS = test system: SNB-19 CNS
SW-620 colon = test system: SW-620 colon
PC-3 prostate = test system: PC-3 prostate
786-0 renal = test system: 786-0 renal
SK-MEL-2 melanoma = test system: SK-MEL-2 melanoma
OVCAR-3 ovarian = test system: OVCAR-3 ovarian
SF-268 CNS = test system: SF-268 CNS
MDA-MB-231 breast = test system: MDA-MB-231 breast
SK-MEL-5 melanoma = test system: SK-MEL-5 melanoma
UACC-257 melanoma = test system: UACC-257 melanoma
U251 CNS = test system: U251 CNS
A498 renal = test system: A498 renal
RPMI-8226 leukemia = test system: RPMI-8226 leukemia
DU-145 prostate = test system: DU-145 prostate
SF-539 CNS = test system: SF-539 CNS
HCT-15 colon = test system: HCT-15 colon
CAKI-1 renal = test system: CAKI-1 renal
ACHN renal = test system: ACHN renal
MDA-MB-435 = test system: MDA-MB-435
MDA-N = test system: MDA-N
HCT-116 colon = test system: HCT-116 colon
OVCAR-4 ovarian = test system: OVCAR-4 ovarian
MALME-3M melanoma = test system: MALME-3M melanoma
NCI-H460 lung = test system: NCI-H460 lung
SK-OV-3 ovarian = test system: SK-OV-3 ovarian
SF-295 CNS = test system: SF-295 CNS
OVCAR-8 ovarian = test system: OVCAR-8 ovarian
HOP-62 NSCLC = test system: HOP-62 NSCLC
UO-31 renal = test system: UO-31 renal
SNB-75 CNS = test system: SNB-75 CNS
OVCAR-5 ovarian = test system: OVCAR-5 ovarian
HS 578T breast = test system: HS 578T breast

CSC(N)=Nc1cccc2ccccc12
TGI (M14 melanoma): > 10 µM
TGI (NCI-H522 lung): > 10 µM
TGI (K-562 leukemia): > 10 µM
TGI (TK-10 renal): > 10 µM
TGI (RXF 393 renal): > 10 µM
TGI (MOLT-4 leukemia): > 10 µM
TGI (COLO 205 colon): > 10 µM
TGI (HL-60(TB) leukemia): > 10 µM
TGI (MCF7 breast): > 10 µM
TGI (LOX IMVI melanoma): > 10 µM
TGI (NCI-H226 lung): > 10 µM
TGI (T-47D breast): > 10 µM
TGI (UACC-62 melanoma): > 10 µM
TGI (HOP-92 NSCLC): > 10 µM
TGI (SN12C renal): > 10 µM
TGI (HCC-2998 colon): > 10 µM
TGI (NCI-H23 lung): > 10 µM
TGI (IGROV1 ovarian): > 10 µM
TGI (HT29 colon): > 10 µM
TGI (SK-MEL-28 melanoma): > 10 µM
TGI (SR leukemia): > 10 µM
TGI (NCI/ADR-RES ovarian): > 10 µM
TGI (EKVX NSCLC): > 10 µM
TGI (A549 NSCLC): > 10 µM
TGI (CCRF-CEM leukemia): > 10 µM
TGI (KM12 colon): > 10 µM
TGI (SNB-19 CNS): > 10 µM
TGI (SW-620 colon): > 10 µM
TGI (PC-3 prostate): > 10 µM
TGI (786-0 renal): > 10 µM
TGI (SK-MEL-2 melanoma): > 10 µM
TGI (OVCAR-3 ovarian): > 10 µM
TGI (SF-268 CNS): > 10 µM
TGI (MDA-MB-231 breast): > 10 µM
TGI (SK-MEL-5 melanoma): > 10 µM
TGI (UACC-257 melanoma): > 10 µM
TGI (U251 CNS): > 10 µM
TGI (A498 renal): > 10 µM
TGI (RPMI-8226 leukemia): > 10 µM
TGI (DU-145 prostate): > 10 µM
TGI (SF-539 CNS): > 10 µM
TGI (HCT-15 colon): > 10 µM
TGI (CAKI-1 renal): > 10 µM
TGI (ACHN renal): > 10 µM
TGI (MDA-MB-435): > 10 µM
TGI (MDA-N): > 10 µM
TGI (HCT-116 colon): > 10 µM
TGI (OVCAR-4 ovarian): > 10 µM
TGI (MALME-3M melanoma): > 10 µM
TGI (NCI-H460 lung): > 10 µM
TGI (SK-OV-3 ovarian): > 10 µM
TGI (SF-295 CNS): > 10 µM
TGI (OVCAR-8 ovarian): > 10 µM
TGI (HOP-62 NSCLC): > 10 µM
TGI (UO-31 renal): > 10 µM
TGI (SNB-75 CNS): > 10 µM

CC(C)(NO)/C(=N\O)c1ccco1
TGI (M14 melanoma): > 100 µM
TGI (TK-10 renal): > 100 µM
TGI (RXF 393 renal): > 100 µM
TGI (MOLT-4 leukemia): 40.8 µM
TGI (COLO 205 colon): > 100 µM
TGI (MCF7 breast): > 100 µM
TGI (LOX IMVI melanoma): > 100 µM
TGI (NCI-H226 lung): > 100 µM
TGI (T-47D breast): > 100 µM
TGI (UACC-62 melanoma): > 100 µM
TGI (HOP-92 NSCLC): > 100 µM
TGI (SN12C renal): > 100 µM
TGI (HCC-2998 colon): > 100 µM
TGI (NCI-H23 lung): > 100 µM
TGI (IGROV1 ovarian): > 100 µM
TGI (HT29 colon): > 100 µM
TGI (SK-MEL-28 melanoma): > 100 µM
TGI (NCI/ADR-RES ovarian): > 100 µM
TGI (EKVX NSCLC): > 100 µM
TGI (A549 NSCLC): > 100 µM
TGI (KM12 colon): > 100 µM
TGI (SNB-19 CNS): > 100 µM
TGI (SW-620 colon): > 100 µM
TGI (OVCAR-5 ovarian): > 100 µM
TGI (PC-3 prostate): > 100 µM
TGI (786-0 renal): > 100 µM
TGI (SK-MEL-2 melanoma): > 100 µM
TGI (OVCAR-3 ovarian): > 100 µM
TGI (SF-268 CNS): > 100 µM
TGI (MDA-MB-231 breast): > 100 µM
TGI (SK-MEL-5 melanoma): > 100 µM
TGI (UACC-257 melanoma): > 100 µM
TGI (U251 CNS): > 100 µM
TGI (HS 578T breast): > 100 µM
TGI (RPMI-8226 leukemia): > 100 µM
TGI (DU-145 prostate): > 100 µM
TGI (SF-539 CNS): > 100 µM
TGI (HCT-15 colon): > 100 µM
TGI (CAKI-1 renal): > 100 µM
TGI (ACHN renal): > 100 µM
TGI (MDA-MB-435): > 100 µM
TGI (MDA-N): > 100 µM
TGI (HCT-116 colon): > 100 µM
TGI (OVCAR-4 ovarian): > 100 µM
TGI (MALME-3M melanoma): > 100 µM
TGI (NCI-H460 lung): > 100 µM
TGI (SK-OV-3 ovarian): > 100 µM
TGI (SF-295 CNS): > 100 µM
TGI (OVCAR-8 ovarian): > 100 µM
TGI (HOP-62 NSCLC): > 100 µM
TGI (UO-31 renal): > 100 µM
